Experimental data as given in publication PMC8765048 (JCI Insight, 2022).

What was measured:
Assay in all cases: microbe, parasite or virus in culture
Type in all cases: cell-based
SARS-CoV-2 variants [1] = settings: Severe acute respiratory syndrome coronavirus 2, Vero C1008
SARS-CoV-2 variants [2] = settings: Severe acute respiratory syndrome coronavirus 2, Calu-3
SARS-CoV-2 = settings: Severe acute respiratory syndrome coronavirus 2; read-out: IC50 values against all viral variants and in all examined cell types

CCC(CC)COC(=O)[C@H](C)N[P@](=O)(OC[C@H]1O[C@@](C#N)(c2ccc3c(N)ncnn23)[C@H](O)[C@@H]1O)Oc1ccccc1 [Remdesivir, remdesivir, reference compound]
IC50 (SARS-CoV-2 variants [1]): 2100 ± 516 nM
IC90 (SARS-CoV-2 variants [1]): 4450 ± 829 nM
IC50 (SARS-CoV-2 variants [2]): 2290 ± 449 nM
IC90 (SARS-CoV-2 variants [2]): 7200 ± 1000 nM

NC(=O)c1cn([C@@H]2O[C@H](CO)[C@@H](O)[C@H]2O)c2ncnc(N)c12 [Sangivamycin, sangivamycin]
IC50 (SARS-CoV-2 variants [1]): 42 ± 8.8 nM
IC90 (SARS-CoV-2 variants [1]): 220 ± 42.1 nM
IC50 (SARS-CoV-2 variants [2]): 64.3 ± 4.7 nM
IC90 (SARS-CoV-2 variants [2]): 255 ± 46.1 nM
IC50 (SARS-CoV-2): 14 to 82 nM
